Laboratory results: ChEMBL document CHEMBL4229379, “Synthesis and structure-activity relationship of novel bisindole amidines active against MDR Gram-positive and Gram-negative bacteria” (Eur J Med Chem, 2018)
Converted amounts (≈) assume the structure as drawn.

Assays:
Pseudomonas aeruginosa [1] = test: Antibacterial activity against Pseudomonas aeruginosa ATCC 27853 after 18 hrs by CLSI broth microdilution method; type: functional; conditions: ATCC 27853, 18 h
Staphylococcus aureus [2] = test: Antibacterial activity against methicillin-resistant Staphylococcus aureus 12-33 after 18 hrs by CLSI broth microdilution method; type: functional; conditions: 12-33, 18 h
Klebsiella pneumoniae [3] = test: Antibacterial activity against extended-spectrum beta-lactamase deficient Klebsiella pneumoniae 12-4 after 18 hrs by CLSI broth microdilution method; type: functional; conditions: 12-4, 18 h
Enterococcus faecalis [4] = test: Antibacterial activity against vancomycin-sensitive Enterococcus faecalis 12-5 after 18 hrs by CLSI broth microdilution method; type: functional; conditions: 12-5, 18 h
Pseudomonas aeruginosa [5] = test: Antibacterial activity against Pseudomonas aeruginosa PAO1 after 18 hrs by CLSI broth microdilution method; type: functional; conditions: PAO1, 18 h
Klebsiella pneumoniae [6] = test: Antibacterial activity against extended-spectrum beta-lactamase deficient Klebsiella pneumoniae 7 after 18 hrs by CLSI broth microdilution method; type: functional; conditions: Klebsiella pneumoniae, 7, 18 h
Escherichia coli [7] = test: Antibacterial activity against extended-spectrum beta-lactamase deficient Escherichia coli 1515 after 18 hrs by CLSI broth microdilution method; type: functional; conditions: Escherichia coli, 1515, 18 h
Citrobacter freundii = test: Antibacterial activity against Citrobacter freundii ATCC 43864 after 18 hrs by CLSI broth microdilution method; type: functional; conditions: ATCC 43864, 18 h
Enterococcus faecium [8] = test: Antibacterial activity against vancomycin-resistant Enterococcus faecium 12-1 after 18 hrs by CLSI broth microdilution method; type: functional; conditions: 12-1, 18 h
Klebsiella aerogenes = test: Antibacterial activity against Enterobacter aerogenes ATCC 13048 after 18 hrs by CLSI broth microdilution method; type: functional; conditions: ATCC 13048, 18 h
Klebsiella pneumoniae [9] = test: Antibacterial activity against extended-spectrum beta-lactamase harboring Klebsiella pneumoniae ATCC 700603 after 18 hrs by CLSI broth microdilution method; type: functional; conditions: Klebsiella pneumoniae, 700603, 18 h
Enterococcus faecalis [10] = test: Antibacterial activity against vancomycin-resistant Enterococcus faecalis 09-9 after 18 hrs by CLSI broth microdilution method; type: functional; conditions: 09-9, 18 h
Pseudomonas aeruginosa [11] = test: Antibacterial activity against Pseudomonas aeruginosa 12-16 after 18 hrs by CLSI broth microdilution method; type: functional; conditions: 12-16, 18 h
Escherichia coli [12] = test: Antibacterial activity against extended-spectrum beta-lactamase deficient Escherichia coli ATCC 25922 after 18 hrs by CLSI broth microdilution method; type: functional; conditions: ATCC 25922, 18 h
[13] = Cytotoxicity against HEK293T cells assessed as reduction in cell viability after 48 hrs by MTS assay; type: cell-based, HEK-293T; conditions: human
[14] = test system: Stenotrophomonas maltophilia; test: Antibacterial activity against Stenotrophomonas maltophilia ATCC 13636 after 18 hrs by CLSI broth microdilution method; type: functional; conditions: ATCC 13636, 18 h
Klebsiella pneumoniae [15] = test: Antibacterial activity against new delhi metallo-beta-lactamase-1 harboring Klebsiella pneumoniae ATCC BAA-2146 after 18 hrs by CLSI broth microdilution method; type: functional; conditions: ATCC BAA-2146, 18 h
Enterococcus faecalis [16] = test: Antibacterial activity against vancomycin-sensitive Enterococcus faecalis ATCC 29212 after 18 hrs by CLSI broth microdilution method; type: functional; conditions: ATCC 29212, 18 h
Providencia rettgeri = test: Antibacterial activity against Providencia rettgeri ATCC 31052 after 18 hrs by CLSI broth microdilution method; type: functional; conditions: ATCC 31052, 18 h
Enterococcus faecium [17] = test: Antibacterial activity against vancomycin-resistant Enterococcus faecium ATCC 700221 after 18 hrs by CLSI broth microdilution method; type: functional; conditions: ATCC 700221, 18 h
Staphylococcus aureus [18] = test: Antibacterial activity against methicillin-sensitive Staphylococcus aureus 15 after 18 hrs by CLSI broth microdilution method; type: functional; conditions: Staphylococcus aureus, 15, 18 h
Klebsiella pneumoniae [19] = test: Antibacterial activity against extended-spectrum beta-lactamase harboring Klebsiella pneumoniae 12-8 after 18 hrs by CLSI broth microdilution method; type: functional; conditions: 12-8, 18 h
Serratia marcescens = test: Antibacterial activity against Serratia marcescens ATCC 21074 after 18 hrs by CLSI broth microdilution method; type: functional; conditions: ATCC 21074, 18 h
[20] = test system: Staphylococcus epidermidis; test: Antibacterial activity against methicillin-sensitive Staphylococcus epidermidis ATCC 12228 after 18 hrs by CLSI broth microdilution method; type: functional; conditions: ATCC 12228, 18 h
Staphylococcus aureus [21] = test: Antibacterial activity against methicillin-sensitive Staphylococcus aureus ATCC 29213 after 18 hrs by CLSI broth microdilution method; type: functional; conditions: ATCC 29213, 18 h
Enterobacter cloacae = test: Antibacterial activity against Enterobacter cloacae ATCC 43560 after 18 hrs by CLSI broth microdilution method; type: functional; conditions: ATCC 43560, 18 h
Escherichia coli [22] = test: Antibacterial activity against extended-spectrum beta-lactamase deficient Escherichia coli 12-14 after 18 hrs by CLSI broth microdilution method; type: functional; conditions: 12-14, 18 h
Proteus vulgaris = test: Antibacterial activity against Proteus vulgaris ATCC 29905 after 18 hrs by CLSI broth microdilution method; type: functional; conditions: ATCC 29905, 18 h
[23] = test system: Staphylococcus epidermidis; test: Antibacterial activity against methicillin-resistant Staphylococcus epidermidis 12-8 after 18 hrs by CLSI broth microdilution method; type: functional; conditions: 12-8, 18 h
Escherichia coli [24] = test: Antibacterial activity against extended-spectrum beta-lactamase harboring Escherichia coli 12-15 after 18 hrs by CLSI broth microdilution method; type: functional; conditions: 12-15, 18 h
Enterococcus faecium [25] = test: Antibacterial activity against vancomycin-sensitive Enterococcus faecium 12-3 after 18 hrs by CLSI broth microdilution method; type: functional; conditions: 12-3, 18 h
Staphylococcus aureus [26] = test: Antibacterial activity against methicillin-resistant Staphylococcus aureus ATCC 33591 after 18 hrs by CLSI broth microdilution method; type: functional; conditions: ATCC 33591, 18 h
[27] = test system: Staphylococcus epidermidis; test: Antibacterial activity against methicillin-sensitive Staphylococcus epidermidis 12-6 after 18 hrs by CLSI broth microdilution method; type: functional; conditions: 12-6, 18 h
Proteus mirabilis = test: Antibacterial activity against Proteus mirabilis 12-6 after 18 hrs by CLSI broth microdilution method; type: functional; conditions: 12-6, 18 h
Enterococcus faecalis [28] = test: Antibacterial activity against vancomycin-resistant Enterococcus faecalis ATCC 51299 after 18 hrs by CLSI broth microdilution method; type: functional; conditions: ATCC 51299, 18 h
Staphylococcus aureus [29] = test: Antibacterial activity against methicillin-sensitive Staphylococcus aureus 12-28 after 18 hrs by CLSI broth microdilution method; type: functional; conditions: 12-28, 18 h
[30] = test system: Acinetobacter calcoaceticus; test: Antibacterial activity against Acinetobacter calcoaceticus ATCC 19606 after 18 hrs by CLSI broth microdilution method; type: functional; conditions: ATCC 19606, 18 h

SMILES	MIC (Pseudomonas aeruginosa [1])	MIC (Staphylococcus aureus [2])	MIC (Klebsiella pneumoniae [3])	MIC (Enterococcus faecalis [4])	MIC (Pseudomonas aeruginosa [5])	MIC (Klebsiella pneumoniae [6])	MIC (Escherichia coli [7])	MIC (Citrobacter freundii)	MIC (Enterococcus faecium [8])	MIC (Klebsiella aerogenes)	MIC (Klebsiella pneumoniae [9])	MIC (Enterococcus faecalis [10])	MIC (Pseudomonas aeruginosa [11])	MIC (Escherichia coli [12])	CC50 at 48 h [13]	MIC [14]	MIC (Klebsiella pneumoniae [15])	MIC (Enterococcus faecalis [16])	MIC (Providencia rettgeri)	MIC (Enterococcus faecium [17])	other results
CN(C)C(=N)c1ccc2cc(-c3ccc4cc(-c5cc6ccc(C(=N)N(C)C)cc6[nH]5)ccc4c3)[nH]c2c1	> 128 µg/mL	2 µg/mL (≈ 4.01 µM)	> 128 µg/mL	32 µg/mL (≈ 64.2 µM)	> 128 µg/mL	> 128 µg/mL	32 µg/mL (≈ 64.2 µM)	32 µg/mL (≈ 64.2 µM)	32 µg/mL (≈ 64.2 µM)	> 128 µg/mL	> 128 µg/mL	4 µg/mL (≈ 8.02 µM)	> 128 µg/mL	32 µg/mL (≈ 64.2 µM)	6.2 µg/mL (≈ 12.4 µM)	32 µg/mL (≈ 64.2 µM)	> 128 µg/mL	32 µg/mL (≈ 64.2 µM)	128 µg/mL (≈ 257 µM)	32 µg/mL (≈ 64.2 µM)	MIC (Staphylococcus aureus [18]): 2 µg/mL (≈ 4.01 µM); MIC (Klebsiella pneumoniae [19]): 128 µg/mL (≈ 257 µM); MIC (Serratia marcescens): > 128 µg/mL; MIC [20]: 2 µg/mL (≈ 4.01 µM); MIC (Staphylococcus aureus [21]): 2 µg/mL (≈ 4.01 µM); MIC (Enterobacter cloacae): 64 µg/mL (≈ 128 µM); MIC (Escherichia coli [22]): 32 µg/mL (≈ 64.2 µM); MIC (Proteus vulgaris): 64 µg/mL (≈ 128 µM); MIC [23]: 1 µg/mL (≈ 2.01 µM); MIC (Escherichia coli [24]): 64 µg/mL (≈ 128 µM); MIC (Enterococcus faecium [25]): 16 µg/mL (≈ 32.1 µM); MIC (Staphylococcus aureus [26]): 2 µg/mL (≈ 4.01 µM); MIC [27]: 32 µg/mL (≈ 64.2 µM); MIC (Proteus mirabilis): > 128 µg/mL; MIC (Enterococcus faecalis [28]): 32 µg/mL (≈ 64.2 µM); MIC (Staphylococcus aureus [29]): 2 µg/mL (≈ 4.01 µM); MIC [30]: 128 µg/mL (≈ 257 µM)
CC(C)NC(=N)c1ccc2cc(-c3cncc(-c4cc5ccc(C(=N)NC(C)C)cc5[nH]4)c3)[nH]c2c1	> 64 µg/mL	32 µg/mL (≈ 67 µM)	> 64 µg/mL	> 64 µg/mL	> 64 µg/mL	> 64 µg/mL	> 64 µg/mL	> 64 µg/mL	> 64 µg/mL	> 64 µg/mL	> 64 µg/mL	> 64 µg/mL	> 64 µg/mL	> 64 µg/mL	26.5 µg/mL (≈ 55.4 µM)	> 64 µg/mL	> 64 µg/mL	> 64 µg/mL	> 64 µg/mL	> 64 µg/mL	MIC (Staphylococcus aureus [18]): 16 µg/mL (≈ 33.5 µM); MIC (Klebsiella pneumoniae [19]): > 64 µg/mL; MIC (Serratia marcescens): > 64 µg/mL; MIC [20]: 8 µg/mL (≈ 16.7 µM); MIC (Staphylococcus aureus [21]): 8 µg/mL (≈ 16.7 µM); MIC (Enterobacter cloacae): > 64 µg/mL; MIC (Escherichia coli [22]): > 64 µg/mL; MIC (Proteus vulgaris): > 64 µg/mL; MIC [23]: 8 µg/mL (≈ 16.7 µM); MIC (Escherichia coli [24]): > 64 µg/mL; MIC (Enterococcus faecium [25]): > 64 µg/mL; MIC (Staphylococcus aureus [26]): 16 µg/mL (≈ 33.5 µM); MIC [27]: 2 µg/mL (≈ 4.19 µM); MIC (Proteus mirabilis): > 64 µg/mL; MIC (Enterococcus faecalis [28]): > 64 µg/mL; MIC (Staphylococcus aureus [29]): 16 µg/mL (≈ 33.5 µM); MIC [30]: > 64 µg/mL
N=C(c1ccc2cc(-c3ccc(-c4cc5ccc(C(=N)N6CCCC6)cc5[nH]4)cc3)[nH]c2c1)N1CCCC1	> 128 µg/mL	2 µg/mL (≈ 3.99 µM)	8 µg/mL (≈ 16 µM)	4 µg/mL (≈ 7.99 µM)	> 128 µg/mL	8 µg/mL (≈ 16 µM)	4 µg/mL (≈ 7.99 µM)	8 µg/mL (≈ 16 µM)	4 µg/mL (≈ 7.99 µM)	8 µg/mL (≈ 16 µM)	16 µg/mL (≈ 32 µM)	4 µg/mL (≈ 7.99 µM)	64 µg/mL (≈ 128 µM)	4 µg/mL (≈ 7.99 µM)	4.15 µg/mL (≈ 8.29 µM)	16 µg/mL (≈ 32 µM)	8 µg/mL (≈ 16 µM)	4 µg/mL (≈ 7.99 µM)	8 µg/mL (≈ 16 µM)	4 µg/mL (≈ 7.99 µM)	MIC (Staphylococcus aureus [18]): 2 µg/mL (≈ 3.99 µM); MIC (Klebsiella pneumoniae [19]): 8 µg/mL (≈ 16 µM); MIC (Serratia marcescens): 64 µg/mL (≈ 128 µM); MIC [20]: 0.25 µg/mL (≈ 0.499 µM); MIC (Staphylococcus aureus [21]): 2 µg/mL (≈ 3.99 µM); MIC (Enterobacter cloacae): 8 µg/mL (≈ 16 µM); MIC (Escherichia coli [22]): 4 µg/mL (≈ 7.99 µM); MIC (Proteus vulgaris): 8 µg/mL (≈ 16 µM); MIC [23]: 1 µg/mL (≈ 2 µM); MIC (Escherichia coli [24]): 4 µg/mL (≈ 7.99 µM); MIC (Enterococcus faecium [25]): 4 µg/mL (≈ 7.99 µM); MIC (Staphylococcus aureus [26]): 2 µg/mL (≈ 3.99 µM); MIC [27]: 0.25 µg/mL (≈ 0.499 µM); MIC (Proteus mirabilis): 8 µg/mL (≈ 16 µM); MIC (Enterococcus faecalis [28]): 8 µg/mL (≈ 16 µM); MIC (Staphylococcus aureus [29]): 2 µg/mL (≈ 3.99 µM); MIC [30]: 16 µg/mL (≈ 32 µM)
